Laboratory results reported in US20220040123A1, “ANTI-HELICOBACTER FOOD COMPOSITION COMPRISING BETA-CARYOPHYLLENE” (priority 2018, published 2022).

Columns and labels:
Helicobacter pylori = assay: RT-PCR of H. pylori-specific 16S rRNA in stomach tissue of infected animals; assay type: in vivo, Mongolian gerbils; settings: groups treated with 100 mg/kg and 500 mg/kg
Protocol: Mongolian gerbils were infected with a Helicobacter pylori strain (ATCC 49503) and then subjected to two weeks of acclimatization. To this end, the animals were fasted for 12 hours before and after inoculation with the Helicobacter pylori strain. 500 μl (1×10^9 CFU) of a bacterial suspension was prepared by suspending H. pylori in sterile physiological saline to a concentration of 2×10^9 CFU/ml and introduced directly into the stomach by using a feeding needle. For stable infection, the H. pylori strain was dispensed three times at 48 hour-intervals.
Beta-caryophyllene was administered directly into the gastrointestinal at doses of 100 mg/kg and 500 mg/kg for the low and high dose groups, respectively, for 12 weeks after two weeks after infection with H. pylori. The same amount of corn oil as the beta-caryophyllene was administered to each of the non-infected group and the infected group.
To confirm H. pylori infection, the stomach tissues of the four animal groups prepared in the H. pylori-infected animal preparation process shown in Experimental Example 2 were subjected to RT-PCR in order to examine whether H. pylori-specific 16S rRNA would be detected.

H. pylori [1] = assay: CLO score after the CLO test; assay type: in vivo, C57BL/6 mouse; settings: for CLO score: 28 days, score 0-3, control G3 2.10
Protocol: (§1) In order to compare the Helicobacter pylori eradiation effect between beta-caryophyllene and the antibiotics that are used for treatment of Helicobacter pylori infection, an animal test was performed using the test groups and doses shown in Table 1 below.
(§2) Each test substance was suspended in an excipient according to the dose and administered to each mouse once a day at the same time every day for a total of 28 days in a dose of 5 ml per kg mouse (C57BL/6 mouse) by oral gavage method.
The mean and standard deviation of each group were calculated, and the difference between the values of the groups was compared, and the results are shown in Table 3 below.

H. pylori [2] = assay: Gastric rapid urease test (CLO test), therapeutic rate; assay type: in vivo, C57BL/6 mouse; settings: oral gavage, 28 days, control G3 30%
Protocol: as §1, §2
The rapid urease test is based on the principle according to which, when H. pylori is present in gastric mucosa, the bacteria produce ammonia by secreting urease while proliferating in a medium containing a test reagent and a pH indicator, and a change in the color of the pH indicator is examined.
The gastric mucosal tissue extracted on the day of the autopsy was collected aseptically and tested using a Campylobacter-like organism (CLO) test reagent. The tissue was incubated in an incubator at 37° C. for 2 hours, the resulting color changed from yellow to red, the sample was judged as positive. The number of mice determined to be positive was calculated as a percentage, and the therapeutic rate for H. pylori eradication by sample treatment was obtained using the following equation, and the results are shown in Table 2 below.
Therapeutic rate (%)=(number of samples−number of positive samples)/number of samples×100

[3] = test system: Helicobacter pylori-infected people; assay: Human test, changes in digestive system symptoms; assay type: in vivo; settings: 8 weeks
Protocol: In order to verify the anti-Helicobacter pylori effect of beta-caryophyllene, beta-caryophyllene was administered to 16 semi-healthy people (Helicobacter pylori-infected people) complaining of gastrointestinal disorders, at a dose of 126 mg/day once a day for 8 weeks before meals, and changes in digestive system symptoms (nausea, epigastric pain, heartburn, acid regurgitation, and indigestion) were evaluated, and the results are shown in Table 5.

[4] = test system: dnaA, dnaN, holB and polA genes; assay: Expression of DNA synthesis-related genes of H. pylori; assay type: cell-based, Helicobacter pylori; settings: 31.25-500 μg/ml
Protocol: DNA replication is essential for the proliferation of Helicobacter pylori, and RNA synthesis (transcription process) is a process essential for protein synthesis in organisms. Thus, unless normal RNA synthesis occurs, normal life activity cannot be maintained. Accordingly, in order to evaluate the inhibitory effect of beta-caryophyllene against the proliferation of H. pylori, H. pylori was treated with beta-caryophyllene at concentrations of 31.25, 62.5, 125, 250 and 500 μg/ml, and changes in the expression of the DNA synthesis-related genes dnaA, dnaN, holB and polA were analyzed, and the results are shown in FIG. 10.

[5] = test system: virB2, virB4, virB5, virB6, virB7, virB8, virB9, virB10 and virD4 genes; assay: RT-PCR of type IV secretion system (T4SS) genes; assay type: cell-based, Helicobacter pylori; settings: 31.25-500 μg/ml
Protocol: In order to evaluate the inhibitory effect of beta-caryophyllene against the CagA toxin injection ability of Helicobacter pylori, expression of virB2, virB4, virB5, virB6, virB7, virB8, virB9, virB10 and virD4 genes associated with the type IV secretion system (T4SS) structure required to inject the CagA toxin into a host cell was analyzed, and the results are shown in FIG. 11. Specifically, Helicobacter pylori was treated with beta-caryophyllene at concentrations of 31.25, 62.5, 125, 250 and 500 μg/ml, and expression of the genes was analyzed by RT-PCR.

H. pylori [6] = assay: Minimum growth inhibitory concentration test (absorbance at 650 nm after 72 hours); assay type: cell-based, Helicobacter pylori (ATCC 49503); settings: Mueller Hinton broth with 10% bovine serum, absorbance 650 nm
Protocol: For H. pylori culture, an H. pylori (ATCC 49503) strain was inoculated on a Brucella agar medium containing 10% bovine serum and antibiotics (vancomycin, esfsuldin, trimethoprim, and amphotericin B), and cultured in an anaerobic incubator which maintains 10% CO2, 5% O2, 85% N2, and 97% or more humidity, at 37° C. for 72 hours. For a minimum growth inhibitory concentration test, each of 7.81, 15.63, 31.25, 62.5, 125, 250 and 500 μg and 1, 2 and 4 mg of beta-caryophyllene was added to a medium obtained by adding 10% bovine serum to Mueller Hinton broth, and then cultured in a CO2 incubator at a relative humidity of 100% for 72 hours. Each of the bacterial solutions cultured for 72 hours was measured for absorbance at 650 nm using a spectrophotometer to determine the minimum inhibitory concentration (MIC) of beta-caryophyllene, and the results are graphically shown in FIG. 2.

[7] = 126 mg/day, after vs before intake

C=C1CC/C=C(\C)CC[C@@H]2[C@@H]1CC2(C)C [beta-caryophyllene]
Helicobacter pylori eradication rate (Helicobacter pylori; first value, week 6 (or 100 mg/kg; wording ambiguous)): 90.4%
Helicobacter pylori eradication rate (Helicobacter pylori; second value, week 12 (or 500 mg/kg; wording ambiguous)): 95.8%
CLO score (H. pylori [1]; G6: 100 mg/kg/day): 1.2
decrease of CLO score compared to G3 (H. pylori [1]; G6: 100 mg/kg/day, not statistically significant): 42.9%
CLO score (H. pylori [1]; G7: 200 mg/kg/day): 1.11
decrease of CLO score compared to G3 (H. pylori [1]; G7: 200 mg/kg/day, not statistically significant): 47.1%
CLO score (H. pylori [1]; G8: 500 mg/kg/day): 0.5
decrease of CLO score compared to G3 (H. pylori [1]; G8: 500 mg/kg/day, statistically significant): 76.2%
Therapeutic % (H. pylori [2]; G6: 100 mg/kg/day): 60%
Therapeutic % (H. pylori [2]; G7: 200 mg/kg/day): 56%
Therapeutic % (H. pylori [2]; G8: 500 mg/kg/day): 80%
Nausea, After intake ([3]; 126 mg/day once a day, 16 people, before intake 0.19): 0.06
Acid regurgitation, After intake ([3]; 126 mg/day once a day, 16 people, before intake 0.25): 0.06
Indigestion, After intake ([3]; 126 mg/day once a day, 16 people, before intake 0.56): 0.13
Heartburn, After intake ([3]; 126 mg/day once a day, 16 people, before intake 0.88): 0.38
Epigastric pain, After intake ([3]; 126 mg/day once a day, 16 people, before intake 1.31): 0.44
Acid regurgitation, Improvement rate (%) [3, 7]: 76%
Epigastric pain, Improvement rate (%) [3, 7]: 66.4%
Heartburn, Improvement rate (%) [3, 7]: 56.8%
Indigestion, Improvement rate (%) [3, 7]: 76.8%
Nausea, Improvement rate (%) [3, 7]: 68.4%
improvement of Helicobacter pylori-induced gastrointestinal disorders ([3]; 126 mg/day, all five symptoms of Table 5): ≥ 56%
expression of dnaA gene [4]: increased
expression of dnaN gene [4]: significantly decreased
expression of holB gene [4]: significantly decreased
expression of polA gene [4]: increased
expression of virB2 gene [5]: significantly decreased
expression of virB4 gene [5]: significantly decreased
expression of virB8 gene [5]: significantly decreased
minimum inhibitory concentration (MIC) against H. pylori (H. pylori [6]): 1 mg
